In patent publication US9738932B2, “Biomarkers for cardiovascular side-effects induced by cox-2 inhibitory compounds” (FIRALIS SAS, priority 2005, dated 2017):

Test system: mRNA expression in cardiovascular tissues
Test: Affymetrix GeneChip mRNA expression profiling of monkey tissues (iliac vein, pulmonary vein, aorta, carotid artery, heart) after two-week oral-gavage treatment
[1] = iliac vein, Vioxx animal A60055

SMILES: CS(=O)(=O)c1ccc(C2=C(c3ccccc3)C(=O)OC2)cc1 [Vioxx®, rofecoxib]
- expression of MHC class I classical and non-classical molecules, MHC class II molecules and their receptors (16 tissues, ANOVA p<0.05, 50 mg/kg/day, two weeks): significant increases
- ACE (209749_s_at) mRNA expression, fold change vs control [1]: 1.3 fold
- B2M (216231_s_at) mRNA expression, fold change vs control [1]: 1.4 fold
- BCL6 (215990_s_at) mRNA expression, fold change vs control [1]: 1.3 fold
- BTN2A2 (205298_s_at) mRNA expression, fold change vs control [1]: 1.4 fold
- CCR1 (205098_at) mRNA expression, fold change vs control [1]: 1.4 fold
- CD2 (205831_at) mRNA expression, fold change vs control [1]: 1.4 fold
- CD48 (204118_at) mRNA expression, fold change vs control [1]: 1.5 fold
- CD53 (203416_at) mRNA expression, fold change vs control [1]: 1.5 fold
- CDC2 (210559_s_at) mRNA expression, fold change vs control [1]: 1.5 fold
- CYBB (203922_s_at) mRNA expression, fold change vs control [1]: 1.4 fold
- EMP3 (203729_at) mRNA expression, fold change vs control [1]: 1.4 fold
- FCER1G (204232_at) mRNA expression, fold change vs control [1]: 1.4 fold
- FCGR2A (203561_at) mRNA expression, fold change vs control [1]: 1.5 fold
- FCGRT (218831_s_at) mRNA expression, fold change vs control [1]: 1.4 fold
- FKBP11 (219117_s_at) mRNA expression, fold change vs control [1]: 1.4 fold
- FKBP11 (219118_at) mRNA expression, fold change vs control [1]: 1.5 fold
- GP6 (220336_s_at) mRNA expression, fold change vs control [1]: 1.4 fold
- HCLS1 (202957_at) mRNA expression, fold change vs control [1]: 1.3 fold
- HEM1 (209734_at) mRNA expression, fold change vs control [1]: 1.5 fold
- HLA-A (210514_x_at) mRNA expression, fold change vs control [1]: 1.3 fold
- HLA-A (213932_x_at) mRNA expression, fold change vs control [1]: 1.5 fold
- HLA-C (211799_x_at) mRNA expression, fold change vs control [1]: 1.4 fold
- HLA-E (200904_at) mRNA expression, fold change vs control [1]: 1.4 fold
- HLA-F (221978_at) mRNA expression, fold change vs control [1]: 1.3 fold
- ICAM1 (202637_s_at) mRNA expression, fold change vs control [1]: 1.3 fold
- IL13RA1 (210904_s_at) mRNA expression, fold change vs control [1]: 1.2 fold
- PIK3CD (203879_at) mRNA expression, fold change vs control [1]: 1.2 fold
- PRKCBP1 (209048_s_at) mRNA expression, fold change vs control [1]: 1.3 fold
- PRKCBP1 (209049_s_at) mRNA expression, fold change vs control [1]: 1.5 fold
- PTPN7 (204852_s_at) mRNA expression, fold change vs control [1]: 1.4 fold
- SIGIRR (52940_at) mRNA expression, fold change vs control [1]: 1.2 fold
- STAT1 (200887_s_at) mRNA expression, fold change vs control [1]: 1.5 fold
- STAT1 (AFFX-HUMISGF3A/M97935_3_at) mRNA expression, fold change vs control [1]: 1.4 fold
- STAT3 (208992_s_at) mRNA expression, fold change vs control [1]: 1.5 fold
- TCIRG1 (204158_s_at) mRNA expression, fold change vs control [1]: 1.2 fold
- THY1 (213869_x_at) mRNA expression, fold change vs control [1]: 1.3 fold
- TMPO (209753_s_at) mRNA expression, fold change vs control [1]: 1.5 fold
- TMSB10 (217733_s_at) mRNA expression, fold change vs control [1]: 1.4 fold
- TNFRSF21 (218856_at) mRNA expression, fold change vs control [1]: 1.5 fold
- TRB@ (210915_x_at) mRNA expression, fold change vs control [1]: 1.3 fold
- TRB@ (213193_x_at) mRNA expression, fold change vs control [1]: 1.5 fold
- 209813_x_at fold change vs control (iliac vein, animal A60055): 2.4 fold
- AIF1 (209901_x_at) fold change vs control (iliac vein, animal A60055): 3.0 fold
- AIF1 (213095_x_at) fold change vs control (iliac vein, animal A60055): 3.2 fold
- B2M (201891_s_at) fold change vs control (iliac vein, animal A60055): 3.0 fold
- BCL3 (204908_s_at) fold change vs control (iliac vein, animal A60055): 1.7 fold
- BTN3A1 (207485_x_at) fold change vs control (iliac vein, animal A60055): 4.0 fold
- BTN3A3 (38241_at) fold change vs control (iliac vein, animal A60055): 2.3 fold
- BTN3A3 (204820_s_at) fold change vs control (iliac vein, animal A60055): 4.1 fold
- BTN3A3 (204821_at) fold change vs control (iliac vein, animal A60055): 3.3 fold
- C1QA (218232_at) fold change vs control (iliac vein, animal A60055): 1.7 fold
- C1QB (202953_at) fold change vs control (iliac vein, animal A60055): 1.8 fold
- C1R (212067_s_at) fold change vs control (iliac vein, animal A60055): 2.0 fold
- C1S (208747_s_at) fold change vs control (iliac vein, animal A60055): 3.6 fold
- C2 (203052_at) fold change vs control (iliac vein, animal A60055): 3.3 fold
- C4A (208451_s_at) fold change vs control (iliac vein, animal A60055): 3.8 fold
- CASP1 (209970_x_at) fold change vs control (iliac vein, animal A60055): 2.3 fold
- CASP1 (211367_s_at) fold change vs control (iliac vein, animal A60055): 2.7 fold
- CCL2 (216598_s_at) fold change vs control (iliac vein, animal A60055): 150.9 fold
- CCL3 (205114_s_at) fold change vs control (iliac vein, animal A60055): 3.8 fold
- CCL5 (1405_i_at) fold change vs control (iliac vein, animal A60055): 2.8 fold
- CCL8 (214038_at) fold change vs control (iliac vein, animal A60055): 8.8 fold
- CCL18 (209924_at) fold change vs control (iliac vein, animal A60055): 2.0 fold
- CCL19 (210072_at) fold change vs control (iliac vein, animal A60055): 3.0 fold
- CCNB2 (202705_at) fold change vs control (iliac vein, animal A60055): 2.9 fold
- CD3D (213539_at) fold change vs control (iliac vein, animal A60055): 1.9 fold
- CD8A (205758_at) fold change vs control (iliac vein, animal A60055): 2.3 fold
- CD14 (201743_at) fold change vs control (iliac vein, animal A60055): 2.0 fold
- CD74 (209619_at) fold change vs control (iliac vein, animal A60055): 2.8 fold
- CLU (208791_at) fold change vs control (iliac vein, animal A60055): 2.2 fold
- CMAH (210571_s_at) fold change vs control (iliac vein, animal A60055): 2.0 fold
- CTSC (201487_at) fold change vs control (iliac vein, animal A60055): 2.1 fold
- CTSK (202450_s_at) fold change vs control (iliac vein, animal A60055): 1.5 fold
- CTSS (202902_s_at) fold change vs control (iliac vein, animal A60055): 1.6 fold
- CX3CR1 (205898_at) fold change vs control (iliac vein, animal A60055): 3.6 fold
- CXCL9 (203915_at) fold change vs control (iliac vein, animal A60055): 9.3 fold
- CXCL10 (204533_at) fold change vs control (iliac vein, animal A60055): 19.8 fold
- CXCL11 (210163_at) fold change vs control (iliac vein, animal A60055): 9.7 fold
- CXCL11 (211122_s_at) fold change vs control (iliac vein, animal A60055): 6.6 fold
- CXCL12 (209687_at) fold change vs control (iliac vein, animal A60055): 1.6 fold
- CYBA (203028_s_at) fold change vs control (iliac vein, animal A60055): 1.8 fold
- CYBB (203923_s_at) fold change vs control (iliac vein, animal A60055): 1.6 fold
- CYP1B1 (202436_s_at) fold change vs control (iliac vein, animal A60055): 2.6 fold
- CYP3A5 (214234_s_at) fold change vs control (iliac vein, animal A60055): 3.9 fold
- CYP11B1 (214630_at) fold change vs control (iliac vein, animal A60055): 2.5 fold
- DUSP6 (208893_s_at) fold change vs control (iliac vein, animal A60055): 3.0 fold
- ECGF1 (204858_s_at) fold change vs control (iliac vein, animal A60055): 3.3 fold
- ECM1 (209365_s_at) fold change vs control (iliac vein, animal A60055): 2.0 fold
- F2RL1 (206429_at) fold change vs control (iliac vein, animal A60055): 2.0 fold
- F13A1 (203305_at) fold change vs control (iliac vein, animal A60055): 1.8 fold
- FCGR1A (214511_x_at) fold change vs control (iliac vein, animal A60055): 2.0 fold
- FCGR3A (204006_s_at) fold change vs control (iliac vein, animal A60055): 2.5 fold
- G1P2 (205483_s_at) fold change vs control (iliac vein, animal A60055): 4.5 fold
- GZMB (210164_at) fold change vs control (iliac vein, animal A60055): 3.2 fold
- HCA127 (220040_x_at) fold change vs control (iliac vein, animal A60055): 2.0 fold
- HCK (208018_s_at) fold change vs control (iliac vein, animal A60055): 1.8 fold
- HFE (210864_x_at) fold change vs control (iliac vein, animal A60055): 1.8 fold
